Measured values reported in patent publication US11185100B2 (priority 2014, dated 2021).
Read-outs that look alike come from different tables or passages of the source.

Columns and labels:
T1R1/T1R3 receptor [1] = target: T1, T1R1/T1R3 receptor (Felis catus, UniProt E3UMS2); assay: Activation of T1R1/T1R3 receptor by transmembrane compounds and nucleotide derivatives, conducted as in Examples 1, 2 and 5 (Example 7); type: cell-based, cat; settings: for Activity: modulation of T1R1/T1R3
Description: Methods: HEK293 cells that stably express T1R3 and inducibly express T1R1 were exposed to nucleotide derivatives alone to activate the umami receptor. Activation of the T1R1/T1R3 receptor was detected by a change in intracellular calcium levels using a calcium sensitive fluorescent dye. Cells that express T1R3 but not T1R1 were used as a control. A FLIPR® Tetra or a FlexStation® 3 was used for data capture.
Methods: HEK293 cells that stably express T1R3 and inducibly express T1R1 were exposed to nucleotide derivatives alone or in combination with one or more amino acids and/or one or more nucleotides to activate the umami receptor. Activation of the T1R1/T1R3 receptor was detected by a change in intracellular calcium levels using a calcium sensitive fluorescent dye and/or a luminescent reporter system. Cells that express T1R3 but not T1R1 were used as a control. A FLIPR® Tetra or a FlexStation® 3 was used for data capture.
(§1) Methods: HEK293 cells that stably express T1R3 and inducibly express T1R1 were exposed to transmembrane compounds alone or in combination with one or more amino acids and/or one or more nucleotides to activate the umami receptor. Activation of the T1R1/T1R3 receptor was detected by a change in intracellular calcium levels using a calcium sensitive fluorescent dye. Cells that express T1R3 but not T1R1 were used as a control. A FLIPR® Tetra or a FlexStation® 3 was used for data capture.
(§2) In each experiment, serial dilutions of up to 10 mM of the transmembrane compound were added to the T1R1/T1R3-expressing cells.

T1R1/T1R3 receptor [2] = target: T1, T1R1/T1R3 receptor; assay: Activation of T1R1/T1R3 receptor by transmembrane compounds alone or with alanine, IMP, GMP, phenylalanine; HEK293 cells, calcium fluorescence (Example 5); type: cell-based, cat
Description: as §1, §2

[3] = read-out: EC50 +Alanine (20 mM)
[4] = read-out: EC50 +Alanine (20 mM) + IMP (0.2 mM)

| Compound | Max resp % of Ala +IMP (0.2 mM) (T1R1/T1R3 receptor [1]; +IMP (0.2 mM)) | Max resp ΔF/F +IMP (0.2 mM) (T1R1/T1R3 receptor [1]; +IMP (0.2 mM)) | Thres +IMP (0.2 mM) (T1R1/T1R3 receptor [1]; +IMP (0.2 mM)) [mM] | Max resp ΔF/F +Alanine (20 mM) (T1R1/T1R3 receptor [1]) | Max resp % of IMP +Alanine (20 mM) (T1R1/T1R3 receptor [1]; hek293 cells) | Activity (T1R1/T1R3 receptor [1]) | Thres +Alanine (20 mM) (T1R1/T1R3 receptor [1]) [mM] | other results |
| --- | --- | --- | --- | --- | --- | --- | --- | --- |
| Nc1nc2c(ncn2[C@@H]2O[C@H](COP(=O)(O)O)[C@@H](O)[C@H]2O)c(=O)[nH]1 [Guanosine monophosphate (GMP), guanosine monophosphate, reference compound] | – | – | – | – | – | – | – | Max resp % of IMP +Alanine (20 mM) (T1R1/T1R3 receptor [1]; +Alanine (20 mM)): 114.6 % of IMP; Max resp ΔF/F +Alanine (20 mM) (T1R1/T1R3 receptor [1]; +Alanine (20 mM)): 0.7850 ΔF/F; Thres +Alanine (20 mM) (T1R1/T1R3 receptor [1]; +Alanine (20 mM)): 0.01 mM |
| N[C@@H](Cc1ccccc1)C(=O)O [L-Phenylalanine, reference compound] | 75.9 % of Ala | 0.5900 ΔF/F | 0.1 | – | – | – | – | – |
| CC(=O)Nc1ccc(C(=O)Nc2cc(-c3ccccc3)nn2CCO)cc1 [4-acetamido-N-(1-(2-hydroxyethyl)-3-phenyl-1H-pyrazol-5-yl)benzamide] | 58.8 % of Ala | 0.4575 ΔF/F | – | 0.0125 ΔF/F | 1.8 % of IMP | active | – | – |
| O=C(NCCc1c[nH]c2ccccc12)c1cccnc1 [N-(2-(1H-indol-3-yl)ethyl)nicotinamide, N-(2-(1H-Indol-3-yl)ethyl)nicotinamide] | 170.1 % of Ala | 1.3225 ΔF/F | 0.003 | 1.1400 ΔF/F | 166.4 % of IMP | active | 0.03 | EC50 (T1R1/T1R3 receptor [1]; [3]): > 100 µM |
| O=C(NCCc1ccccc1)c1ccccc1 [N-phenethylbenzamide] | 126.0 % of Ala | 0.9800 ΔF/F | 0.01 | 0.1400 ΔF/F | 20.4 % of IMP | active | 0.6 | – |
| O=C(NCCc1ccccc1)c1ccc2c(c1)OCO2 [N-phenethylbenzo[d][1,3]dioxole-5-carboxamide] | 92.0 % of Ala | 0.7150 ΔF/F | 0.01 | 0.0775 ΔF/F | 11.3 % of IMP | active | 1.0 | – |
| O=C(O)C1CCCCC1C(=O)Nc1cc(Cl)cc(Cl)c1 (stereo not shown) [2-((3,5-dichlorophenyl)carbamoyl)cyclohexanecarboxylic acid] | 157.9 % of Ala | 1.2275 ΔF/F | 0.03 | 1.1200 ΔF/F | 163.5 % of IMP | active | 0.1 | – |
| CCOC(=O)NC(=O)C(c1ccccc1)c1ccccc1 [Ro 01-6128, reference compound] | 199.7 % of Ala | 1.5525 ΔF/F | 0.01 | – | – | active | – | Max resp % of IMP +Alanine (20 mM) (T1R1/T1R3 receptor [1]; +Alanine (20 mM)): 74.8 % of IMP; Max resp ΔF/F +Alanine (20 mM) (T1R1/T1R3 receptor [1]; +Alanine (20 mM)): 0.5125 ΔF/F; Thres +Alanine (20 mM) (T1R1/T1R3 receptor [1]; +Alanine (20 mM)): 0.3 mM |
| O=C(NCCc1ccccc1)c1cccnc1 [N-phenethylnicotinamide] | 149.5 % of Ala | 1.1625 ΔF/F | 0.03 | 0.5725 ΔF/F | 83.6 % of IMP | active | 0.1 | EC50 (T1R1/T1R3 receptor [1]; read-out: T1R1/T1R3 EC50): > 300 µM |
| N[C@@H](CO)C(=O)O [L-Serine, reference compound] | 100.0 % of Ala | 0.7775 ΔF/F | 3.0 | – | – | – | – | – |
| CSCC[C@H](N)C(=O)O [L-Methionine, reference compound] | – | – | – | – | – | – | – | Max resp ΔF/F +IMP (0.2 mM) (T1R1/T1R3 receptor [1]): 0.3500 ΔF/F; Thres +IMP (0.2 mM) (T1R1/T1R3 receptor [1]): 30.0 mM; Max resp % of Ala +IMP (0.2 mM) (T1R1/T1R3 receptor [1]; hek293 cells): 45.0 % of Ala |
| N[C@@H](CS)C(=O)O [L-Cysteine, reference compound] | 74.6 % of Ala | 0.5800 ΔF/F | 10.0 | – | – | – | – | – |
| Nc1ccccc1C(=O)NCCc1ccccc1 [2-amino-N-phenethylbenzamide] | 194.5 % of Ala | 1.5125 ΔF/F | 0.01 | 0.6400 ΔF/F | 93.4 % of IMP | active | 0.3 | – |
| CC(C)CC(NC(=O)c1ccccc1)C(N)=O (racemic) | 204.5 % of Ala | 1.5900 ΔF/F | 0.1 | 0.8600 ΔF/F | 125.5 % of IMP | active | 0.3 | EC50 (T1R1/T1R3 receptor [1]; +0.2 mM IMP, read-out: T1R1/T1R3 EC50): 470 ± 70 µM; EC50 (T1R1/T1R3 receptor [1]; alone in buffer, read-out: T1R1/T1R3 EC50): > 600 µM; EC50 (T1R1/T1R3 receptor [1]; read-out: T1R1/T1R3 EC50): > 1000 µM |
| CCCCc1nn(CC(=O)N2CCCC2)c(=O)n1Cc1ccccc1 [4-benzyl-3-butyl-1-(2-oxo-2-(pyrrolidin-1-yl)ethyl)-1H-1,2,4-triazol-5(4H)-one] | 193.2 % of Ala | 1.5025 ΔF/F | 0.1 | 0.8900 ΔF/F | 129.9 % of IMP | active | 0.3 | EC50 (T1R1/T1R3 receptor [1]; compound alone in buffer, read-out: EC50 +buffer (alone)): > 600 µM; EC50 (T1R1/T1R3 receptor [1]; [3]): > 600 µM; EC50 (T1R1/T1R3 receptor [1]; [4]): > 600 µM; EC50 (T1R1/T1R3 receptor [1]; read-out: EC50 +IMP (0.2 mM), +IMP (0.2 mM)): > 600 µM |
| O=C(NCCCCNC(=O)c1cccnc1)c1cccnc1 [N,N′-(butane-1,4-diyl)dinicotinamide] | 49.2 % of Ala | 0.3825 ΔF/F | 0.1 | 0.0650 ΔF/F | 9.5 % of IMP | active | 1.0 | EC50 (T1R1/T1R3 receptor [1]; [4]): 610 µM; EC50 (T1R1/T1R3 receptor [1]; read-out: T1R1/T1R3 EC50): 610 ± 360 µM |
| N[C@@H](Cc1c[nH]c2ccccc12)C(=O)O [L-Tryptophan, reference compound] | 86.8 % of Ala | 0.6750 ΔF/F | 0.1 | – | – | – | – | – |
| CCC(CC)NC(=O)c1ccc(C)c(C)c1 [3,4-dimethyl-N-(pentan-3-yl)benzamide; N-(1-ethylpropyl)-3,4-dimethylbenzamide] | – | – | – | – | – | – | – | +Alanine (20 mM) Max resp % of IMP (T1R1/T1R3 receptor [2]; +Alanine (20 mM)): 97.8 % of IMP; +Alanine (20 mM) Max resp ΔF/F (T1R1/T1R3 receptor [2]; +Alanine (20 mM)): 1.2150 ΔF/F; +Alanine (20 mM) Thres (T1R1/T1R3 receptor [2]; +Alanine (20 mM)): 3 mM; +IMP (0.2 mM) Max resp % of Ala (T1R1/T1R3 receptor [2]; +IMP (0.2 mM)): 125.7 % of Ala |
| CCC(CC)NC(=O)c1ccc(OC)c(OC)c1 [3,4-dimethoxy-N-(pentan-3-yl)benzamide] | – | – | – | – | – | – | – | +Alanine (20 mM) Max resp % of IMP (T1R1/T1R3 receptor [2]; +Alanine (20 mM)): 43.9 % of IMP; +Alanine (20 mM) Max resp ΔF/F (T1R1/T1R3 receptor [2]; +Alanine (20 mM)): 0.545 ΔF/F; +Alanine (20 mM) Thres (T1R1/T1R3 receptor [2]; +Alanine (20 mM)): 0.3 mM; Max resp % of IMP +Alanine (20 mM) (T1R1/T1R3 receptor [2]; +Alanine (20 mM), relative to IMP): 43.9%; Thres +Alanine (20 mM) (T1R1/T1R3 receptor [2]; +Alanine (20 mM), threshold concentration): 0.3 mM; +IMP (0.2 mM) Max resp % of Ala (T1R1/T1R3 receptor [2]; +IMP (0.2 mM)): 81.0 % of Ala; Max resp ΔF/F +IMP (0.2 mM) (T1R1/T1R3 receptor [2]; +IMP (0.2 mM)): 0.9975 ΔF/F; Max resp % of Ala +IMP (0.2 mM) (T1R1/T1R3 receptor [2]; +IMP (0.2 mM), relative to Ala): 81.0%; Thres +IMP (0.2 mM) (T1R1/T1R3 receptor [2]; +IMP (0.2 mM), threshold concentration): 0.5 mM; Activity (T1R1/T1R3 receptor [2]; Table 18, all transmembrane compounds tested, active / N/A (not active)): active |
